Entries after “also recorded” stand apart in the source; their conditions may differ.
Legend:
[1] = molecular target: T1, Retinol Dehydrogenase 10 (RDH10) (Homo sapiens, UniProt Q8IZV5); experiment: Inhibition of RDH10 enzyme activity (microsomal fraction of RDH10-expressed 293T, all-trans retinol to all-trans retinal, HPLC); type: biochemical; details: final concentration of 20 μM; relative to DMSO control (FIG. 1)
T1 construct: expressed in transfected cells; host or cells: 293T (microsomal fraction)
T1 sequence (Q8IZV5 1-341): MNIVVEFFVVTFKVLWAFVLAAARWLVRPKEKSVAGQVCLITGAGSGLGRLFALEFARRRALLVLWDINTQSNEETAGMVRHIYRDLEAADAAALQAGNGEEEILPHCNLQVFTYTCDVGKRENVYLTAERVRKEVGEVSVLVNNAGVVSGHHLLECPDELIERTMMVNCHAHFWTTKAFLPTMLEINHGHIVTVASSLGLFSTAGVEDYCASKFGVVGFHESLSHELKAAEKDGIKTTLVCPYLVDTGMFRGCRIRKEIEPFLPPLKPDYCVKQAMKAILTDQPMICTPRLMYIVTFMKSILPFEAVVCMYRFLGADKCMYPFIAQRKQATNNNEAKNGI
Protocol: All-trans retinol, BSA, and NAD (nicotinamide adenine dinucleotide) as a coenzyme were added to a buffer for reaction (90 mM potassium phosphate buffer, pH7.4, 40 mM KCl) so as to have final concentrations of 10 μM, 10 μM, and 1 mM respectively. This mixture was taken in siliconized tubes by 200 μl for each, the microsomal fractions separated from 293T and RDH10-expressed 293T were added to separate tubes by 10 μl for each, and the mixtures were allowed to react at 37° C. for 15 minutes. After 200 μl of methanol was added to the reaction mixtures to stop the reaction, retinoid was extracted using hexane and concentrated. The concentrated retinoid was dissolved in 150 μl of acetonitrile, separated by HPLC, and subjected to the detection of ultraviolet light absorption at a wavelength of 350 nm, whereby the substrate (all-trans retinol) and the product (all-trans retinal) were detected. In addition, standard samples (all-trans retinol and all-trans retinal) were separated by HPLC and the retention times of the respective standard samples were determined in advance. The solvent for HPLC was acetonitrile: 50 mM ammonium acetate=75:25. As the separation column, Syhergi 4 μm Hydro-RP 80A (manufactured by Phenomenex) was used. In addition, the flow rate was 2.0 ml/min. The RDH10 enzyme activity was calculated by reading the amount of product per fixed time from the chart of HPLC.
All-trans retinol, BSA, and NAD (nicotinamide adenine dinucleotide) as a coenzyme were added to a buffer for reaction (90 mM potassium phosphate buffer, pH7.4, 40 mM KCl) so as to have final concentrations of 10 μM, 10 μM, and 1 mM respectively. This mixture was taken in siliconized tubes by 200 μl for each, the microsomal fraction separated from RDH10-expressed 293T was added to separate tubes by 10 μl for each. The RDH10 inhibitor dissolved in DMSO was added to each tube so as to have a final concentration of 20 μM, and the same amount of DMSO was added to the control tube. The mixture was allowed to react at 37° C. for 15 to 30 minutes, 200 μl of methanol was added to the reaction mixtures, and then retinoid was extracted using hexane and concentrated. The concentrated retinoid was dissolved in 150 μl of acetonitrile, separated by HPLC, and subjected to the detection of ultraviolet light absorption at a wavelength of 350 nm, whereby the substrate (all-trans retinol) and the product (all-trans retinal) were detected. In addition, standard samples (all-trans retinol and all-trans retinal) were separated by HPLC and the retention times of the respective standard samples were determined in advance. The solvent for HPLC was acetonitrile: 50 mM ammonium acetate=75:25. As the separation column, Syhergi 4 μm Hydro-RP 80A (manufactured by Phenomenex) was used. The flow rate was 2.0 ml/min.
The enzyme activity was determined by the waveform area of the product (all-trans retinal) with respective to the waveform area of the non-reacted substrate (all-trans retinol), and the relative value with respect to the enzyme activity in the control is illustrated in FIG. 1. The error bars indicate SD (standard deviation).

[2] = test system: mouse cancer cell line EG7 expressing OVA; experiment: Effect in vivo: EG7 tumor-bearing B6 mice with transferred OT-1 cells; parameters: species or system C57BL/6J mouse; details: for frequency of CD45.1+OT-1 cells (OVA specific CD8+ cells) in peripheral blood / expression of CD62L and CD127 in CD45.1+OT-1 cells: 100 μg/mouse tail vein; for frequency of CD45.1+OT-1 cells (OVA specific CD8+ cells) in peripheral blood: 20th day after tumor transplantation (FIG. 5); for expression of CD62L and CD127 in CD45.1+OT-1 cells: 20th day, flow cytometry (FIG. 6); for proliferation of tumor in vivo / tumor volume: 100 μg/mouse through the tail vein, 3 times every other day; for tumor volume: 21st day after transplantation (FIG. 4)
From the text: A mouse cancer cell line EG7 (2×10^6) expressing OVA (chicken ovalbumin) was subcutaneously injected into C57BL/6J mouse (B6 mouse) to form a tumor. Five days later, the mouse in which a tumor was formed was irradiated with radiation at 3 Gy, then T cell-receptive OTCD8^+T cells (OT-1 cells) specific for OVA antigen were isolated from CD45.1 positive OT-I transgenic mouse, and this was transferred into the mouse by 2×10^5 through the tail vein. A total of 3 times every other day from the next day, RDH10 inhibitors (Compound No. 1 (RDHI-012) and Compound No. 2 (RDHI-013)) were administered to the mouse at 100 μg/mouse for each through the tail vein. The RDH10 inhibitors were administered to the mouse by being previously stocked in DMSO at 100 μg/50 μl and adjusted to have a total volume of 200 μl by the addition of 150 μl of PBS.
In the experiment, tumor volumes were measured over time. The frequency of OT-1 cells (OVA specific CD8^+T cells) in peripheral blood on the 20th day was measured. Furthermore, the expression intensity of cell surface antigen molecules (CD62L, CD127), which were markers of memory T cells, was analyzed.
The time course in the mean value of tumor volume after tumor transplantation is illustrated in FIG. 4. The error bars indicate the standard error. The tumor volume was determined by major axis×minor axis×height/2.
On the 20th day after the tumor transplantation, the frequency of transferred OT-I cells contained in peripheral blood was analyzed by flow cytometry. OT-I cells were CD45.1 positive and thus were clearly distinguishable from the host B6 mouse (CD45.2 positive)-derived T cells. The representative results are illustrated in FIG. 5.
The expression intensities of CD62L and CD127 in OT-I cells illustrated in FIG. 5 were analyzed by flow cytometry. The mean value and standard error of each expression intensity are illustrated in FIG. 6.

Structure (SMILES)	RDH10 enzyme activity inhibitory action [1]	frequency of CD45.1+OT-1 cells (OVA specific CD8+ cells) in peripheral blood [2]	expression of CD62L and CD127 in CD45.1+OT-1 cells [2]	proliferation of tumor in vivo [2]	tumor volume [2]
COC(=O)[C@@]1(C)CC[C@]2(C)CC[C@]3(C)C(=CC(=O)[C@@H]4[C@@]5(C)CCC(N)C(C)(C)[C@@H]5CC[C@]43C)[C@H]2C1 (stereo partly drawn) [Compound No. 1, (2S,4aS,6aS,6bR,8aR,12aS,12bR,14bS)-methyl 10-amino-2,4a,6a,6b,9,9,12a-heptamethyl-13-oxo-1,2,3,4,4a,5,6,6a,6b,7,8,8a,9,10,11,12,12a,12b,13,14b-icosahydropicene-2-carboxylate]	relatively potent; also recorded: potent RDH10 enzyme activity inhibitory action	amplify CD45.1^+OT-1 cells	accelerate the expression of CD62L and CD127	suppress the proliferation of tumor in vivo	decreased to one several tenths to one several hundredths
COC(=O)[C@@]1(C)CC[C@]2(C)CC[C@]3(C)C(=CC(=O)[C@@H]4[C@@]5(C)CCC(N)C(C)(C)[C@@H]5CC[C@]43C)[C@@H]2C1 (stereo partly drawn) [Compound No. 2, (2S,4aS,6aS,6bR,8aR,12aS,12bR,14bR)-methyl 10-amino-2,4a,6a,6b,9,9,12a-heptamethyl-13-oxo-1,2,3,4,4a,5,6,6a,6b,7,8,8a,9,10,11,12,12a,12b,13,14b-icosahydropicene-2-carboxylate]	relatively potent; also recorded: potent RDH10 enzyme activity inhibitory action	amplify CD45.1^+OT-1 cells	accelerate the expression of CD62L and CD127	suppress the proliferation of tumor in vivo	decreased to one several tenths to one several hundredths
